Measurements published in ChEMBL document CHEMBL1122448, “New carboxyalkyl inhibitors of brain enkephalinase: synthesis, biological activity, and analgesic properties” (J Med Chem, 1983).
Where a SMILES comes first, the peptide text is derived from it.

Columns and labels:
Mus musculus = assay: Number of writhings 10 min after intracerebroventricular administration of 10 microg 3 and ip administration of naloxone (10 min before compound is administered).; type: functional
Neprilysin = target: T1, Neprilysin (Mus musculus, UniProt Q61391)
T1 sequence (Q61391 whole entry): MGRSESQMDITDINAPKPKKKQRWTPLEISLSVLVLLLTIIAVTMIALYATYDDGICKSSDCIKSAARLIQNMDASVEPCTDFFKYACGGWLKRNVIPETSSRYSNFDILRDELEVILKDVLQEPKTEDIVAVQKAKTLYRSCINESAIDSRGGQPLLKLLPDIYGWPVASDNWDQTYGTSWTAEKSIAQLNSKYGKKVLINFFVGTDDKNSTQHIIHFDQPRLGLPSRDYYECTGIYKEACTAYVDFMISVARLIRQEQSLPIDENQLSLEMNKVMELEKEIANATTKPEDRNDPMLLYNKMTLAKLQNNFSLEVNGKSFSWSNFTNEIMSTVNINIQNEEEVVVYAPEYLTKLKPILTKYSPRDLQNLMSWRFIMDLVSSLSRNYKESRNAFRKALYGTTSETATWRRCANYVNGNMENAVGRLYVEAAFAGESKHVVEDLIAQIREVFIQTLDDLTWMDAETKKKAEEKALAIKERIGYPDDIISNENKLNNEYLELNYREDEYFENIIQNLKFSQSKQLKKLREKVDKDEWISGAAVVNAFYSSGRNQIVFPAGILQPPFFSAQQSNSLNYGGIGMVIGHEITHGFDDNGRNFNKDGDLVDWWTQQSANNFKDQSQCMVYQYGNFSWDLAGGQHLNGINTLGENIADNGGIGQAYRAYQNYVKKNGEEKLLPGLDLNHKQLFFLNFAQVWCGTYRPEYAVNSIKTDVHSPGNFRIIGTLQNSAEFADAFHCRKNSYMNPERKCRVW
Description: 50% Inhibitory potency against enkephalinase from mouse striatum.

[1] = target: T2, Angiotensin-converting enzyme (Mus musculus, UniProt P09470); assay: 50% Inhibitory potency against angiotensin I converting enzyme from mouse striatum.
T2 sequence (P09470 whole entry): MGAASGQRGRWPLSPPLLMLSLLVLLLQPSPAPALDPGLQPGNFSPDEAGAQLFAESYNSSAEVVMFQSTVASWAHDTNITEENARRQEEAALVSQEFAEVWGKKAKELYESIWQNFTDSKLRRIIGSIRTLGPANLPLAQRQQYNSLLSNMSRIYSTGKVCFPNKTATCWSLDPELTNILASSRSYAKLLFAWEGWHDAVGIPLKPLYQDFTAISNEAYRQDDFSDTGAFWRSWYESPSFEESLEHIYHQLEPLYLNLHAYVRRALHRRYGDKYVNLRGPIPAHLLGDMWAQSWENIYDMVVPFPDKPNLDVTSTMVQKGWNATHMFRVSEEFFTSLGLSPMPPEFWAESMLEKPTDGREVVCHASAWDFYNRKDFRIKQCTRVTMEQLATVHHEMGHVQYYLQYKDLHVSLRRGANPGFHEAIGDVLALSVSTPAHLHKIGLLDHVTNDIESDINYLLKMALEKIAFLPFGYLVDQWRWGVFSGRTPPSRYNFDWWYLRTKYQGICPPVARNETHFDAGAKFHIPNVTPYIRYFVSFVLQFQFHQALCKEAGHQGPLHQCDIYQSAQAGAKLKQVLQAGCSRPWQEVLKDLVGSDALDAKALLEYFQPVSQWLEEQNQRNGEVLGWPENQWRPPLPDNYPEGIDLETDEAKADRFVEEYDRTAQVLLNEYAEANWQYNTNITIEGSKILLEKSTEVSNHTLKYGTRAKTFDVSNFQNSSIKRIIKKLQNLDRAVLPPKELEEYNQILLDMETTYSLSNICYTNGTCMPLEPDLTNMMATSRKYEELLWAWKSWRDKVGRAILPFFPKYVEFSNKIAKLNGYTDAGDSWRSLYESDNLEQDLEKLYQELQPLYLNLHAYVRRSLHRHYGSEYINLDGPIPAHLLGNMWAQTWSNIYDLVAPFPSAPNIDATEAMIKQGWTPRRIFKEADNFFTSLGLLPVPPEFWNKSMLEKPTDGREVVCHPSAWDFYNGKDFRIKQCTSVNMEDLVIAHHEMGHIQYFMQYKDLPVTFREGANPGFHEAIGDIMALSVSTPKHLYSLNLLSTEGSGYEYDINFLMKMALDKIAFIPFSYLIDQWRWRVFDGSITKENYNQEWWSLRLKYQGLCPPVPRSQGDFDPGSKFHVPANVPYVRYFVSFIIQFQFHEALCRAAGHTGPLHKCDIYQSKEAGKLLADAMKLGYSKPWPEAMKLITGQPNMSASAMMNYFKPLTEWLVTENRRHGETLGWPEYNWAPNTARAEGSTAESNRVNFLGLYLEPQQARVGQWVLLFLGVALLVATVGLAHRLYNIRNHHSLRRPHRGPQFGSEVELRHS

[2] = target: T2, Angiotensin-converting enzyme
Description: 50% Inhibitory potency against Angiotensin I converting enzyme from mouse striatum.

| Compound | Writhing number (Mus musculus) | IC50 (Neprilysin) | IC50 [1] | IC50 [2] |
| --- | --- | --- | --- | --- |
| C=CCN1CC[C@]23c4c5ccc(O)c4O[C@H]2C(=O)CC[C@@]3(O)[C@H]1C5.CC(C)CC(NC(=O)C(Cc1ccccc1)C(=O)O)C(=O)O | 29.7 | – | – | – |
| CC(C)C[C@H](NC(=O)[C@@H](Cc1ccccc1)NCC(=O)O)C(=O)O | – | > 100 µM | – | – |
| CC(C)CC(NC(=O)C(CC(=O)O)Cc1ccccc1)C(=O)O (stereo not drawn) | – | 0.8 µM | 20 µM | – |
| CC(C)CC(NC(=O)C(Cc1ccccc1)C(=O)O)C(=O)O (stereo not drawn) | 29.7 | 0.7 µM | – | > 1000 µM |
| CC(C)CC(NC(=O)C(Cc1ccccc1)NCCC(=O)O)C(=O)O (stereo not drawn) | – | 11 µM | > 100 µM | – |
| CC(C)C[C@H](NC(=O)[C@H](Cc1ccccc1)NCC(=O)O)C(=O)O | – | 2 µM | 2 µM | – |
| CC(C)C[C@@H](NC(=O)[C@@H](Cc1ccccc1)NCC(=O)O)C(=O)O | – | 18 µM | – | – |
| C[C@H](NC(=O)[C@H](Cc1ccccc1)NCC(=O)O)C(=O)O | – | 0.5 µM | 4 µM | – |
| CC(C)C[C@H](NC(=O)[C@@H](N)Cc1ccccc1)C(=O)O (H-Phe-Leu-OH) | – | 20 µM | – | 700 µM |
| CC(C)CC(NC(=O)[C@H](Cc1ccccc1)NCC(=O)O)C(=O)O (single isomer, unassigned) | – | 11 µM | – | – |
| C=CCN1CC[C@]23c4c5ccc(O)c4O[C@H]2C(=O)CC[C@@]3(O)[C@H]1C5 [NALOXONE] | 31.2 | – | – | – |
